Source: ChEMBL document CHEMBL1681665, “3-amido-4-anilinocinnolines as a novel class of CSF-1R inhibitor” (Bioorg Med Chem Lett, 2011)
In brackets after ≈: the same amount, converted by molar mass. Several values for one entry are separate records, joined by “and”; a condition that tells them apart may be missing. Identical values can stand only once.

Key:
[1] = Fraction unbound in plasma
[2] = Aqueous solubility of the compound; conditions: aqueous medium
[3] = Clearance in mouse at 3 mg/kg, iv and 10 mg/kg, po; format: ADME, organism-based; conditions: in vivo
[4] = Half life in mouse at 3 mg/kg, iv and 10 mg/kg, po; format: ADME, organism-based; conditions: in vivo
[5] = Volume of distribution at steady state in mouse at 3 mg/kg, iv and 10 mg/kg, po; format: ADME, organism-based; conditions: in vivo, read-out: Vdss
[6] = Bioavailability in mouse at 3 mg/kg, iv and 10 mg/kg, po; format: ADME, organism-based; conditions: in vivo
[7] = Clearance in rat at 3 mg/kg, iv and 10 mg/kg, po; format: ADME, organism-based; conditions: in vivo
[8] = Half life in rat at 3 mg/kg, iv and 10 mg/kg, po; format: ADME, organism-based; conditions: in vivo
[9] = Volume of distribution at steady state in rat at 3 mg/kg, iv and 10 mg/kg, po; format: ADME, organism-based; conditions: in vivo, read-out: Vdss
[10] = Bioavailability in rat at 3 mg/kg, iv and 10 mg/kg, po; format: ADME, organism-based; conditions: in vivo
[11] = Clearance in dog at 3 mg/kg, iv and 5 mg/kg, po; format: ADME, organism-based, Canis lupus familiaris; conditions: in vivo
[12] = Half life in dog at 3 mg/kg, iv and 5 mg/kg, po; format: ADME, organism-based, Canis lupus familiaris; conditions: in vivo
[13] = Volume of distribution at steady state in dog at 3 mg/kg, iv and 5 mg/kg, po; format: ADME, organism-based, Canis lupus familiaris; conditions: in vivo, read-out: Vdss
[14] = Bioavailability in dog at 3 mg/kg, iv and 5 mg/kg, po; format: ADME, organism-based, Canis lupus familiaris; conditions: in vivo
NIH3T3 = assay: Antiproliferative activity against mouse 3T3 cells expressing human CSF1R after 72 hrs by Celltiter assay; format: functional
[15] = target: Macrophage colony-stimulating factor 1 receptor (Homo sapiens) (UniProt P07333); assay: Inhibition of CSF1R at 1 uM
Sequence of Macrophage colony-stimulating factor 1 receptor (Homo sapiens) (P07333 whole entry): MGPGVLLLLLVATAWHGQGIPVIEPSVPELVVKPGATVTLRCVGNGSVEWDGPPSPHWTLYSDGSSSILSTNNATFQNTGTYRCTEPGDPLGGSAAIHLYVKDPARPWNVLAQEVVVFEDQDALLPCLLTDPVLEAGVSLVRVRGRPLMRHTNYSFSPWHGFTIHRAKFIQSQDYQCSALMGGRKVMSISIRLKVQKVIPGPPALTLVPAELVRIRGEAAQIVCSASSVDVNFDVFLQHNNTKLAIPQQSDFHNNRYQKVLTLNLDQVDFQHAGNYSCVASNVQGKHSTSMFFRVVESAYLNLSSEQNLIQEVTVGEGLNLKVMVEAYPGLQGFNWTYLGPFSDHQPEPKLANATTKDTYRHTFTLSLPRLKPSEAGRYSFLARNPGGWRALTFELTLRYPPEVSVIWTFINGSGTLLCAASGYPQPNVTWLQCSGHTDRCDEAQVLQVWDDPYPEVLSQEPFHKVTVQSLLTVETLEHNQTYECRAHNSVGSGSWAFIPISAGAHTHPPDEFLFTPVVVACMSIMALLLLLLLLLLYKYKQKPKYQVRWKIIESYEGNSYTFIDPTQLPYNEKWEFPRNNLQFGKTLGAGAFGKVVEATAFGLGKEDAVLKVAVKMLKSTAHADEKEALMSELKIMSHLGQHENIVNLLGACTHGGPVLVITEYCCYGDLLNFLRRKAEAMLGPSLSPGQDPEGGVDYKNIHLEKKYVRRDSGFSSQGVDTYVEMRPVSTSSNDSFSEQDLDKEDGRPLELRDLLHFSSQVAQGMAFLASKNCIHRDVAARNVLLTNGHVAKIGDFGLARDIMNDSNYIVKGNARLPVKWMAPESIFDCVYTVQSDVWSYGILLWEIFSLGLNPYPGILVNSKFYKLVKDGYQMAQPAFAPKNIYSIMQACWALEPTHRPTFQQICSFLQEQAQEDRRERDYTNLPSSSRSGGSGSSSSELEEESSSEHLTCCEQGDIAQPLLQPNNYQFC

[16] = target: Macrophage colony-stimulating factor 1 receptor (Homo sapiens) (UniProt P07333); assay: Inhibition of CSF1R at 0.1 uM
[17] = target: Mast/stem cell growth factor receptor Kit (Homo sapiens) (UniProt P10721); assay: Inhibition of c-Kit at 1 uM
Sequence of Mast/stem cell growth factor receptor Kit (Homo sapiens) (P10721 whole entry): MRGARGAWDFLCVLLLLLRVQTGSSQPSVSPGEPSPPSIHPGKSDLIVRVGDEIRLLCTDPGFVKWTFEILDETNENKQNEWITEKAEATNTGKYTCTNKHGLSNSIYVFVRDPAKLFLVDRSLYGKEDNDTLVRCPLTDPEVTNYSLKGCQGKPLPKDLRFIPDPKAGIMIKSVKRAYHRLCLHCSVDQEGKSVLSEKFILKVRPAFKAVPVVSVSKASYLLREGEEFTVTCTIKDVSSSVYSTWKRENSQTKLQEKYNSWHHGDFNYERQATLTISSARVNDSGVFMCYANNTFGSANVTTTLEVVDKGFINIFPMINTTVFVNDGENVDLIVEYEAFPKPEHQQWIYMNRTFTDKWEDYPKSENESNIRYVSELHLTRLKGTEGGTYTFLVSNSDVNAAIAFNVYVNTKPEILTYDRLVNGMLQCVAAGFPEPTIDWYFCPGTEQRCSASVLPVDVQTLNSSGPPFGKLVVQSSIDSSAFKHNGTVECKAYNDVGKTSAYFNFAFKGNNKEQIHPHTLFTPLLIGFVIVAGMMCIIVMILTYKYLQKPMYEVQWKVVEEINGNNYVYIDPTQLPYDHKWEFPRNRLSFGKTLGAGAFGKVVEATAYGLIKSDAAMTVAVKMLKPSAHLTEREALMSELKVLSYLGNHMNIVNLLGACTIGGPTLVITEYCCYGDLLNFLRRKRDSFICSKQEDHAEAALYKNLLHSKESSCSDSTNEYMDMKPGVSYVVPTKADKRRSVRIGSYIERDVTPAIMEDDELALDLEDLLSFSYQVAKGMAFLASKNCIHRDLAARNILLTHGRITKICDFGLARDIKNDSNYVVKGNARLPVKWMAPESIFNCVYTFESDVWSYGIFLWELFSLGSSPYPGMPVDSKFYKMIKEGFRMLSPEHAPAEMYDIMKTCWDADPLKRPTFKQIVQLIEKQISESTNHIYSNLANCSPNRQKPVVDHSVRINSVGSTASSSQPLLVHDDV

[18] = target: Mast/stem cell growth factor receptor Kit (Homo sapiens) (UniProt P10721); assay: Inhibition of c-Kit at 0.1 uM
[19] = target: T1, NUAK family SNF1-like kinase 1 (Homo sapiens) (UniProt O60285); assay: Inhibition of ARK5 at 1 uM
T1 sequence (whole entry): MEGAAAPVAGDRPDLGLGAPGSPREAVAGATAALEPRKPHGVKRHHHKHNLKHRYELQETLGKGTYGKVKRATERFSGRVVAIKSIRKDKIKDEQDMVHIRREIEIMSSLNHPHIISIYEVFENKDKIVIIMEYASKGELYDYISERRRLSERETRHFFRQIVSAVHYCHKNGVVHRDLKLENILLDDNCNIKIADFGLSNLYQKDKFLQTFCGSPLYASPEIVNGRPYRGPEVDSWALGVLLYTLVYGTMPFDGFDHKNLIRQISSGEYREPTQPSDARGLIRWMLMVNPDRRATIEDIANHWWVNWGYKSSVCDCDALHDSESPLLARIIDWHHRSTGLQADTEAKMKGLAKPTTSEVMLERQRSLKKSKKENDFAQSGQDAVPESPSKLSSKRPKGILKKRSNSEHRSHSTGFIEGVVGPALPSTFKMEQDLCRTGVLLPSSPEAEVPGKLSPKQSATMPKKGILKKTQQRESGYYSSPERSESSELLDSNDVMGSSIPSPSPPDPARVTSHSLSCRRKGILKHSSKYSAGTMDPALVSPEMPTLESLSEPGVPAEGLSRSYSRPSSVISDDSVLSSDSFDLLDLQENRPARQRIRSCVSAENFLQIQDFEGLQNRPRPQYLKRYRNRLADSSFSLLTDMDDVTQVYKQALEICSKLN

[20] = target: T1, NUAK family SNF1-like kinase 1 (Homo sapiens); assay: Inhibition of ARK5 at 0.1 uM
[21] = target: Ribosomal protein S6 kinase alpha-1 (Homo sapiens) (UniProt Q15418); assay: Inhibition of Rsk1 at 1 uM
Sequence of Ribosomal protein S6 kinase alpha-1 (Homo sapiens) (Q15418 whole entry): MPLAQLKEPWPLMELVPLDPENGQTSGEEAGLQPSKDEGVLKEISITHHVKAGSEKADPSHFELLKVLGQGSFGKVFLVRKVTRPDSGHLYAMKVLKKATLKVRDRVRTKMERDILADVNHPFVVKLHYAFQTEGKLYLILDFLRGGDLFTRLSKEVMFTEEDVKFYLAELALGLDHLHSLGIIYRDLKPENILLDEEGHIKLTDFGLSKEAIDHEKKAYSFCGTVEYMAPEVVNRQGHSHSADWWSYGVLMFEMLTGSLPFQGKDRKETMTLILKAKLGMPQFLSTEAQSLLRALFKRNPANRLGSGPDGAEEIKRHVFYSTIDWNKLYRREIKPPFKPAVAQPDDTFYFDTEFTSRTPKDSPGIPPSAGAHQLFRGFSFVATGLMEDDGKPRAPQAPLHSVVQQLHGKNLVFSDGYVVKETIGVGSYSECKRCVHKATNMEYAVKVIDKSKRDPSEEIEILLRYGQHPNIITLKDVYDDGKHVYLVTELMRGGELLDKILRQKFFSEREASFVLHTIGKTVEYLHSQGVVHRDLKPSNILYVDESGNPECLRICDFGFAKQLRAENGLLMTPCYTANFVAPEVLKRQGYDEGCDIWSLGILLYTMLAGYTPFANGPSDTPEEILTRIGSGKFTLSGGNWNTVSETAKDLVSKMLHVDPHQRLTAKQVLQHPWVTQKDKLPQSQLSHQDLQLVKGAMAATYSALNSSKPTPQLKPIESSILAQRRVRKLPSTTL

[22] = target: Ribosomal protein S6 kinase alpha-1 (Homo sapiens) (UniProt Q15418); assay: Inhibition of Rsk1 at 0.1 uM
[23] = target: Maternal embryonic leucine zipper kinase (Homo sapiens) (UniProt Q14680); assay: Inhibition of MELK at 1 uM
Sequence of Maternal embryonic leucine zipper kinase (Homo sapiens) (Q14680 whole entry, looked up): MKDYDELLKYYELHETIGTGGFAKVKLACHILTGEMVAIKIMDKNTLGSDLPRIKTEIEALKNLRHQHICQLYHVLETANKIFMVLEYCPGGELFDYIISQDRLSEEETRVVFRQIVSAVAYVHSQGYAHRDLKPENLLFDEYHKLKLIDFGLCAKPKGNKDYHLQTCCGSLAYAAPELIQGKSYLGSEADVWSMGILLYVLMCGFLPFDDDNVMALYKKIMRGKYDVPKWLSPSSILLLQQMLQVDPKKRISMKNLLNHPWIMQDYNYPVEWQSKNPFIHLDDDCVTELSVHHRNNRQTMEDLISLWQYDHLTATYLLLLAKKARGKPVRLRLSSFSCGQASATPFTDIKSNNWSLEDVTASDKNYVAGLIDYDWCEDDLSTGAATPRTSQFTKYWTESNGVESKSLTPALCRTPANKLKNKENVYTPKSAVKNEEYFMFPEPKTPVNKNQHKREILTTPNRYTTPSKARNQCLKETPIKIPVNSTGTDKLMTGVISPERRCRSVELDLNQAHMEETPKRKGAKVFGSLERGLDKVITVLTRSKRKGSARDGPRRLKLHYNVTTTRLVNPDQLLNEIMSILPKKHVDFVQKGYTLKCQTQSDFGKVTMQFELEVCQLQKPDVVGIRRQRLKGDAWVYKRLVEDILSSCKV

[24] = target: Maternal embryonic leucine zipper kinase (Homo sapiens) (UniProt Q14680); assay: Inhibition of MELK at 0.1 uM

Compound `CCOc1cc2nnc(C(N)=O)c(Nc3ccc(C)cc3F)c2cc1N1CCN(C)CC1` has a fraction unbound [1] of 0.016, a solubility [2] of 27 µM (≈ 11.8 µg/mL) and a clearance [3] of 12 mL/min/kg. For the same compound, the half-life [4] was 0.9 h, the Vd [5] was 0.6 L/kg and the bioavailability [6] was 82%. For the same compound, the clearance [7] was 10 mL/min/kg, the half-life [8] was 9.7 h and the Vd [9] was 2.8 L/kg. It also gave a bioavailability [10] of 90%, a clearance [11] of 2 mL/min/kg and a half-life [12] of 12.6 h. It also gave a Vd [13] of 1.8 L/kg and a bioavailability [14] of 78%.
With `COc1cc2nnc(C(N)=O)c(Nc3ccc(F)cc3F)c2cc1OC` the Activity (NIH3T3) was 0.16 µM and 0.4 µM and the solubility [2] was 3 µM (≈ 1.08 µg/mL).
In the case of `COc1cc2nnc(C(N)=O)c(Nc3cc(C)ccc3F)c2cc1OC`, the Activity (NIH3T3) is reported as 0.2 µM and 0.21 µM and the solubility [2] is reported as < 1 µM.
In the case of `COc1cc2nnc(C(N)=O)c(Nc3ccc(C)cc3F)c2cc1OC`, the Activity (NIH3T3) is reported as 0.11 µM and 0.25 µM and the solubility [2] is reported as < 1 µM.
For `COc1cc2nnc(C(N)=O)c(Nc3cccc(Cl)c3F)c2cc1OC`, the Activity (NIH3T3) was 0.08 µM and 0.12 µM and the solubility [2] was < 1 µM.
For `CCOc1cc2nnc(C(N)=O)c(Nc3ccc(F)cc3F)c2cc1N1CCN(C)CC1`, the fraction unbound [1] was 0.039, the inhibition [15] was 95% and the inhibition [16] was 100%. For the same compound, the inhibition [17] was 90%, the inhibition [18] was 35% and the inhibition [19] was 78%. For the same compound, the inhibition [20] was 23%, the inhibition [21] was 44% and the inhibition [22] was 7%. The inhibition [23] was 41% and the inhibition [24] was 15%.
With `COc1cc2nnc(C(N)=O)c(Nc3cc(C)ccc3F)c2cc1N1CCN(C)CC1` the Activity (NIH3T3) was 0.057 µM and the solubility [2] was 22 µM (≈ 9.34 µg/mL).
In the case of `CCOc1cc2nnc(C(N)=O)c(Nc3cccc(Cl)c3Cl)c2cc1N1CCN(C)CC1`, the fraction unbound [1] is reported as < 0.017 and the solubility [2] is reported as 10 µM (≈ 4.75 µg/mL).
Compound `COc1cc2nnc(C(N)=O)c(Nc3ccc(F)cc3F)c2cc1N1CCN(C)CC1` has a fraction unbound [1] of 0.096 and a solubility [2] of 290 µM (≈ 124 µg/mL).
For `COc1cc2nnc(C(N)=O)c(Nc3ccc(C)cc3F)c2cc1N1CCN(C)CC1`, the Activity (NIH3T3) was 0.025 µM.
With `CCOc1cc2nnc(C(N)=O)c(Nc3cc(C)ccc3F)c2cc1N1CCN(C)CC1` the Activity (NIH3T3) was 0.04 µM and 0.09 µM, the fraction unbound [1] was 0.11 and the solubility [2] was 120 µM (≈ 52.6 µg/mL).
Compound `COc1cc2nnc(C(N)=O)c(Nc3cccc(Cl)c3F)c2cc1N1CCN(C)CC1` has an Activity (NIH3T3) of 0.021 µM and a solubility [2] of 110 µM (≈ 48.9 µg/mL).
With `COc1cc2nnc(C(N)=O)c(Nc3cccc(Cl)c3Cl)c2cc1OC` the Activity (NIH3T3) was 0.05 µM and 0.09 µM and the solubility [2] was < 1 µM.
Work on `CCOc1cc2nnc(C(N)=O)c(Nc3cccc(Cl)c3F)c2cc1N1CCN(C)CC1` yielded a solubility [2] of 18 µM (≈ 8.26 µg/mL).
